Laboratory results: US20240016153A1, “WHEAT SEED PRODUCTION” (PIONEER HI-BRED INTERNATIONAL, INC., priority 2022, published 2024)

Key:
[1] = test system: Hard Red Winter (HRW) wheat varieties or wheat inbred lines; experiment: field and greenhouse experiments: effect of GA3 on plant height, heading, flowering and yield in GA sensitive and insensitive wheat genotypes; type: in vivo
Method: A series of field and greenhouse experiments were conducted to understand the effect of GA3 on plant height, pollen dispersal and seed set in GA sensitive and insensitive wheat genotypes. Eight proprietary Hard Red Winter (HRW) wheat varieties or wheat inbred lines were used in this project at two locations. The plants were genotyped for the Rht1, Rht2, and Rht24 mutant alleles to determine which plants were GA3 sensitive or insensitive genotypes.
Commercially available GA3 was applied using a broadcast application to the wheat plants at various vegetative growth stages described by the Feekes Scale. GA3 was applied at different rates of active ingredient (ai)/acre to elucidate the growth response. Experimental treatments were: Untreated, 1 oz ai/acre applied at Feekes stage 6, 1 oz ai/acre applied sequentially at Feekes stage 6 and Feekes stage 8 (2 oz ai/acre total), and 1 oz ai/acre applied sequentially at Feekes stage 6, Feekes stage 8, and Feekes stage 10 (3 oz ai/acre total)

winter wheat genotypes = experiment: production studies: sodium chlorate desiccant sprayed to delay male flowering; type: in vivo
Method: A series of production studies were conducted to understand how to delay male flowering in wheat seed production. Several winter wheat genotypes were planted in a split plot design and sprayed with a commercially available sodium chlorate desiccant at the highest labeled rate at Feekes stages 7 and 9. In most crops, desiccants are typically used to artificially accelerate the drying down of plant tissues. Here, the strategy was to slow growth rates in the male wheat plants to delay heading and subsequent flowering. […] The desiccant caused a slight 0 to 2 inch (0 to 5 cm) reduction in plant height.

Row | Compound | change in heading and flowering ([1]; GA insensitive genotypes) | effect on wheat plant height ([1]; GA sensitive genotypes vs same genotype not treated) | wheat yield vs untreated plants ([1]; GA sensitive genotypes, same GA3 treatment) | decrease of yield ([1]; GA sensitive male genotypes) [%] | differences in plant height with GA3 treatments ([1]; plants with Rht1+Rht24 or Rht2+Rht24 mutant alleles (GA3 insensitive genotype combinations)) | inbred male yield (winter wheat genotypes; sprayed at Feekes stage 7 or 9 (both stages), FIG. 4) | inbred male yield, comparison of stages (winter wheat genotypes; sprayed at Feekes stage 9, FIG. 4)
1 | C=C1C[C@]23C[C@@]1(O)CC[C@H]2[C@@]12C=C[C@H](O)[C@@](C)(C(=O)O1)[C@H]2[C@@H]3C(=O)O [GA3, gibberellin A3] | did not change | positive effect | lower wheat yield | 11 | did not show differences in plant height |  | 
2 | [Na+].[O-][Cl+2]([O-])[O-] [sodium chlorate] |  |  |  |  |  | reduced | greatest reduction
